The source made the active and inactive calls. No cut-off for these calls is given here.
Experiments:
[1] = test system: Rattus norvegicus; test: Ability to block ovariectomy-induced bone loss in orally dosed Sprague-Dawley rat; assay type: functional, organism-based
[2] = test system: Rattus norvegicus; test: Eosinophil peroxidase activity in ovariectomized orally dosed Sprague-Dawley rat; assay type: functional, organism-based; conditions: filed as agonist
[3] = test system: Rattus norvegicus; test: Inhibition of estrogen-induced effect on uterine weight in orally dosed Sprague-Dawley rat; assay type: functional
[4] = target: T1, Estrogen receptor (Homo sapiens, UniProt Q92731+P03372); test: Antagonist effect on breast adenocarcinoma-derived MCF7 cell line; assay type: functional, cell-based
[5] = target: Estrogen receptor beta (Homo sapiens, UniProt Q92731); test: Displacement of [3H]17beta-estradiol from ERbeta
[6] = target: T1, Estrogen receptor; test: Antagonist effect on Ishikawa uterine cancer cell line in presence of 17-beta-estradiol; assay type: functional, cell-based
[7] = target: T2, Estrogen receptor (Homo sapiens, UniProt P03372); test: Displacement of [3H]17beta-estradiol from ERalpha
T2 sequence (P03372 whole entry): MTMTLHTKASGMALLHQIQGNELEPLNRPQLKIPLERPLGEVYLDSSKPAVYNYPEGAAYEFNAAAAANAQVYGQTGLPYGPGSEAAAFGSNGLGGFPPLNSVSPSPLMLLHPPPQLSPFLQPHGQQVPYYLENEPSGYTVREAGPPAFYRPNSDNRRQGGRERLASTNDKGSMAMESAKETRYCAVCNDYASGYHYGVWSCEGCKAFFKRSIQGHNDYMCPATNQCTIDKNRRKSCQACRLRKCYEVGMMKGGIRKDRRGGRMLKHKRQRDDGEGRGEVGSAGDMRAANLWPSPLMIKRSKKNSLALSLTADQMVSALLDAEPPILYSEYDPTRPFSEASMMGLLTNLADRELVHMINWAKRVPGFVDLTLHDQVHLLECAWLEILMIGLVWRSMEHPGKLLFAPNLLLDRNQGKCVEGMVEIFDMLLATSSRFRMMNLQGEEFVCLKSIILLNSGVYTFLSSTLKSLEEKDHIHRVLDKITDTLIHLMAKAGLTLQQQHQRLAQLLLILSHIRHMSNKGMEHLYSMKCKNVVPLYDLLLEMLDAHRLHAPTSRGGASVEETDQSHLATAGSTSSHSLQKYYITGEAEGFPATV

[8] = test system: Rattus norvegicus; test: Efficacy against hot flush in morphine dependent ovariectomized orally dosed Sprague-Dawley rat model; assay type: functional, organism-based
[9] = test system: Rattus norvegicus; test: Ability to reduce serum cholesterol level in ovariectomized orally dosed Sprague-Dawley rat at 0.01 mg/kg; assay type: functional; design: scale not given: the % may be the effect or the level left; conditions: route oral

Estrogen receptor beta, sequence (Q92731 whole entry): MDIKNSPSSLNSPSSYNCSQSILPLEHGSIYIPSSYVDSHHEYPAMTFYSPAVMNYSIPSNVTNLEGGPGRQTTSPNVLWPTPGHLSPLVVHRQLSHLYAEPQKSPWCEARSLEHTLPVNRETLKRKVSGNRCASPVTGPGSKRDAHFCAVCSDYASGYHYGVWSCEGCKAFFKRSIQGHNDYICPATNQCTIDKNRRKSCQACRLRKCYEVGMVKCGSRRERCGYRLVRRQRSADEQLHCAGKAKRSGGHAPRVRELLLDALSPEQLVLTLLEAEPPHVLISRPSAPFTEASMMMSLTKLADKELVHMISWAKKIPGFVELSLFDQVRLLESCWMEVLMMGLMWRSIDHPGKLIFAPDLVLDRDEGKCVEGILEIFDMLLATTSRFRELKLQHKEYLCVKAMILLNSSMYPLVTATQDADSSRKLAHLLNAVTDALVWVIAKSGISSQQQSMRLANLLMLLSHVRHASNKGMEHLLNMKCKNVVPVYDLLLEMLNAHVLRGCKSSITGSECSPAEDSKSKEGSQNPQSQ

| SMILES | Activity [1] | Activity [2] | ED50 [3] | IC50 [4] | Ki [5] | IC50 [6] | Ki [7] | ED50 ([3]; po) | Efficacy [8] | Activity [9] |
| --- | --- | --- | --- | --- | --- | --- | --- | --- | --- | --- |
| O=C(c1ccc(OCCN2CCCC2)cc1)c1c(-c2ccc(O)cc2)sc2cc(O)ccc12 | Active | Antagonist |  |  |  |  |  |  |  |  |
| Cl.Oc1ccc2c3c(ccc2c1)-c1cc(F)cc(F)c1O[C@H]3c1ccc(OCCN2CCCCC2)cc1 |  |  | inactive | 330 nM | 54 nM | 430 nM | 5.8 nM |  |  |  |
| Cl.Oc1ccc2c3c(ccc2c1)-c1cc(F)cc(F)c1O[C@@H]3c1ccc(OCCN2CCCCC2)cc1 | Active | Antagonist |  | 1.4 nM | 0.5 nM | 5.3 nM | 0.3 nM | 0.03 mg/kg | Dose-dependent effect | 50% |

Reference: ChEMBL document CHEMBL1149385, “A selective estrogen receptor modulator for the treatment of hot flushes” (J Med Chem, 2006)
